Experimental data from ChEMBL document CHEMBL1131541, “New synthetic inhibitors of microtubule depolymerization” (1998).

Biological target: Tubulin beta chain (Bos taurus) (UniProt Q6B856)
Experiment: Effect on microtubule stabilization isolated from bovine brain

Sequence of Tubulin beta chain (Bos taurus) (Q6B856 whole entry): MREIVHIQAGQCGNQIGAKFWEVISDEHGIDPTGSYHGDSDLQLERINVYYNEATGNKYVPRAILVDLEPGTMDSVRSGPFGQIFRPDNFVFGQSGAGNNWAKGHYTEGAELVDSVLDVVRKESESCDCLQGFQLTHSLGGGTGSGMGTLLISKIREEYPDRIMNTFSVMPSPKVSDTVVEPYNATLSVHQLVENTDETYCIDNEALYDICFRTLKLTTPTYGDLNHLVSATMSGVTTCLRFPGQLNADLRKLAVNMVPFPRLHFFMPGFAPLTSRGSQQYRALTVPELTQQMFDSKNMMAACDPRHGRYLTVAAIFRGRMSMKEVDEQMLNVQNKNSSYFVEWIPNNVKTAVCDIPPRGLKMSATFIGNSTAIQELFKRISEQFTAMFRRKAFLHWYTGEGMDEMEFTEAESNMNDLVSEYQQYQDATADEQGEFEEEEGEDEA

| SMILES | Relative stability |
| --- | --- |
| CCOC(=O)N[C@@H](c1ccccc1)[C@@H](O)C(=O)OC1CC2C(C)(C)C1(C)[C@@]13C[C@](O)(COC(C)=O)c4ccccc4[C@@]21O3 (stereo not given in full) | 22% |
| CC(C)NC(=O)N[C@@H](c1ccccc1)[C@@H](O)C(=O)OC1CC2C(C)(C)C1(C)[C@@]13C[C@H](C)c4ccccc4[C@@]21O3 (stereo not given in full) | 150% |
| C=C1C[C@@]23O[C@]2(c2ccccc21)C1CC(OC(=O)[C@H](O)[C@@H](NC(=O)NCCCC)c2ccccc2)C3(C)C1(C)C (stereo not given in full) | 68% |
| C=C1C[C@@]23O[C@]2(c2ccccc21)C1CC(OC(=O)[C@H](O)[C@@H](NC(C)=O)c2ccccc2)C3(C)C1(C)C (stereo not given in full) | 89% |
| C=C1C[C@@]23O[C@]2(c2ccccc21)C1CC(OC(=O)[C@H](O)[C@@H](NC(=O)OCC)c2cccs2)C3(C)C1(C)C (stereo not given in full) | 215% |
| CC(C)NC(=O)N[C@@H](c1ccsc1)[C@@H](O)C(=O)OC1CC2C(C)(C)C1(C)[C@@]13CC(C)c4ccccc4[C@@]21O3 (stereo not given in full) | 56% |
| C[C@H]1C[C@@]23O[C@]2(c2ccccc21)C1CC(OC(=O)[C@H](O)[C@@H](NC(=O)NC(C)(C)C)c2ccccc2)C3(C)C1(C)C (stereo not given in full) | 153% |
| C=C1C[C@@]23O[C@]2(c2ccccc21)C1CC(OC(=O)[C@H](O)[C@@H](NC(=O)OCC)c2cccnc2)C3(C)C1(C)C (stereo not given in full) | 65% |
| CCOC(=O)N[C@@H](c1ccoc1)[C@@H](O)C(=O)OC1CC2C(C)(C)C1(C)[C@@]13C[C@H](C)c4ccccc4[C@@]21O3 (stereo not given in full) | 190% |
| COC(=O)N[C@@H](c1ccncc1)[C@@H](O)C(=O)OC1CC2C(C)(C)C1(C)[C@@]13C[C@](O)(COC(C)=O)c4ccccc4[C@@]21O3 (stereo not given in full) | 116% |
| C=C1C[C@@]23O[C@]2(c2ccccc21)C1CC(OC(=O)[C@H](O)[C@@H](NC(=O)OCC)c2cccc(F)c2)C3(C)C1(C)C (stereo not given in full) | 106% |
| C=C1C[C@@]23O[C@]2(c2ccccc21)C1CC(OC(=O)[C@H](O)[C@@H](NC(=O)OCCCC)c2ccccc2)C3(C)C1(C)C (stereo not given in full) | 83% |
| CCOC(=O)N[C@@H](c1ccc(F)cc1)[C@@H](O)C(=O)OC1CC2C(C)(C)C1(C)[C@@]13C[C@H](C)c4ccccc4[C@@]21O3 (stereo not given in full) | 139% |
| C=C1C[C@@]23O[C@]2(c2ccccc21)C1CC(OC(=O)[C@H](O)[C@@H](NC(=O)NC(C)C)c2ccccc2)C3(C)C1(C)C (stereo not given in full) | 103% |
| C=C1C[C@@]23O[C@]2(c2ccccc21)C1CC(OC(=O)[C@H](O)[C@@H](NC(=O)OCC)c2ccncc2)C3(C)C1(C)C (stereo not given in full) | 423% |
| C=C1C[C@@]23O[C@]2(c2ccccc21)C1CC(OC(=O)[C@H](O)[C@@H](NC(=O)NC(C)(C)C)c2ccccc2)C3(C)C1(C)C (stereo not given in full) | 92% |
| C=C1C[C@@]23O[C@]2(c2ccccc21)C1CC(OC(=O)[C@H](O)[C@@H](NC(=O)CC(C)C)c2ccccc2)C3(C)C1(C)C (stereo not given in full) | 101% |
| COC(=O)N[C@@H](c1ccncc1)[C@@H](O)C(=O)OC1CC2C(C)(C)C1(C)[C@@]13C[C@]4(CO4)c4ccccc4[C@@]21O3 (stereo not given in full) | 423% |
| CCCC(=O)N[C@@H](c1ccncc1)[C@@H](O)C(=O)OC1CC2C(C)(C)C1(C)[C@@]13CC(C)c4ccccc4[C@@]21O3 (stereo not given in full) | 862% |
| C[C@H]1C[C@@]23O[C@]2(c2ccccc21)C1CC(OC(=O)[C@H](O)[C@@H](NC(=O)CCC2CCCC2)c2ccccc2)C3(C)C1(C)C (stereo not given in full) | 86% |
| CCCC(=O)N[C@@H](c1ccccc1)[C@@H](O)C(=O)OC1CC2C(C)(C)C1(C)[C@@]13C[C@H](C)c4ccccc4[C@@]21O3 (stereo not given in full) | 168% |
| CCCCOC(=O)N[C@@H](c1ccncc1)[C@@H](O)C(=O)OC1CC2C(C)(C)C1(C)[C@@]13CC(C)c4ccccc4[C@@]21O3 (stereo not given in full) | -3% |
| C[C@H]1C[C@@]23O[C@]2(c2ccccc21)C1CC(OC(=O)[C@H](O)[C@@H](NC(=O)OC(C)(C)C)c2ccccc2)C3(C)C1(C)C (stereo not given in full) | 148% |

| SMILES | Relative stability |
| --- | --- |
| CCOC(=O)N[C@@H](c1ccncc1)[C@@H](O)C(=O)OC1CC2C(C)(C)C1(C)[C@@]13C[C@@H](C)c4ccccc4[C@@]21O3 (stereo not given in full) | 227% |
| CCOC(=O)N[C@@H](c1ccncc1)[C@@H](O)C(=O)OC1CC2C(C)(C)C1(C)[C@@]13C[C@H](C)c4ccccc4[C@@]21O3 (stereo not given in full) | 1300% |
| C=C1C[C@@]23O[C@]2(c2ccccc21)C1CC(OC(=O)[C@H](O)[C@@H](NC(=O)OC(C)(C)C)c2ccccc2)C3(C)C1(C)C (stereo not given in full) | 27% |
| CCOC(=O)N[C@@H](c1cccs1)[C@@H](O)C(=O)OC1CC2C(C)(C)C1(C)[C@@]13C[C@H](C)c4ccccc4[C@@]21O3 (stereo not given in full) | 311% |
| CCCCOC(=O)N[C@@H](c1ccc(O)cc1)[C@@H](O)C(=O)OC1CC2C(C)(C)C1(C)[C@@]13CC(C)c4ccccc4[C@@]21O3 (stereo not given in full) | 80% |
| CCCC(=O)N[C@@H](c1ccsc1)[C@@H](O)C(=O)OC1CC2C(C)(C)C1(C)[C@@]13CC(C)c4ccccc4[C@@]21O3 (stereo not given in full) | 91% |
| CCOC(=O)N[C@@H](c1ccc(C)cc1)[C@@H](O)C(=O)OC1CC2C(C)(C)C1(C)[C@@]13C[C@H](C)c4ccccc4[C@@]21O3 (stereo not given in full) | 152% |
| C=C1C[C@@]23O[C@]2(c2ccccc21)C1CC(OC(=O)[C@H](O)[C@@H](NC(=O)OCC)c2ccc(O)cc2)C3(C)C1(C)C (stereo not given in full) | 130% |
| CCOC(=O)N[C@@H](c1ccsc1)[C@@H](O)C(=O)OC1CC2C(C)(C)C1(C)[C@@]13C[C@H](C)c4ccccc4[C@@]21O3 (stereo not given in full) | 788% |
| C=C1C[C@@]23O[C@]2(c2ccccc21)C1CC(OC(=O)[C@H](O)[C@@H](NC(=O)OCC)c2ccoc2)C3(C)C1(C)C (stereo not given in full) | 119% |
| C=C1C[C@@]23O[C@]2(c2ccccc21)C1CC(OC(=O)[C@H](O)[C@@H](NC(=O)CC)c2ccccc2)C3(C)C1(C)C (stereo not given in full) | 108% |
| CCOC(=O)N[C@@H](c1ccsc1)[C@@H](O)C(=O)OC1CC2C(C)(C)C1(C)[C@@]13C[C@@H](C)c4ccccc4[C@@]21O3 (stereo not given in full) | 58% |
| CCOC(=O)N[C@@H](c1ccc(Cl)cc1)[C@@H](O)C(=O)OC1CC2C(C)(C)C1(C)[C@@]13C[C@H](C)c4ccccc4[C@@]21O3 (stereo not given in full) | 193% |
| C=C1C[C@@]23O[C@]2(c2ccccc21)C1CC(OC(=O)[C@H](O)[C@@H](NC(=O)OC)c2ccccc2)C3(C)C1(C)C (stereo not given in full) | 164% |
| C=C1C[C@@]23O[C@]2(c2ccccc21)C1CC(OC(=O)[C@H](O)[C@@H](NC(=O)OCC)c2ccsc2)C3(C)C1(C)C (stereo not given in full) | 788% |
| CCOC(=O)N[C@@H](c1ccc(OC)cc1)[C@@H](O)C(=O)OC1CC2C(C)(C)C1(C)[C@@]13C[C@H](C)c4ccccc4[C@@]21O3 (stereo not given in full) | 125% |
| COC(=O)N[C@@H](c1ccccc1)[C@@H](O)C(=O)OC1CC2C(C)(C)C1(C)[C@@]13C[C@H](C)c4ccccc4[C@@]21O3 (stereo not given in full) | 244% |
| C=C1C[C@@]23O[C@]2(c2ccccc21)C1CC(OC(=O)[C@H](O)[C@@H](NC(=O)OCC)c2ccc(OC)cc2)C3(C)C1(C)C (stereo not given in full) | 95% |
| COC(=O)N[C@@H](c1ccsc1)[C@@H](O)C(=O)OC1CC2C(C)(C)C1(C)[C@@]13CC(C)c4ccccc4[C@@]21O3 (stereo not given in full) | 316% |
| CCOC(=O)N[C@@H](c1cccc(F)c1)[C@@H](O)C(=O)OC1CC2C(C)(C)C1(C)[C@@]13C[C@H](C)c4ccccc4[C@@]21O3 (stereo not given in full) | 139% |
| CCOC(=O)N[C@@H](c1ccccc1)[C@@H](O)C(=O)OC1CC2C(C)(C)C1(C)[C@@]13C[C@](O)(CO)c4ccccc4[C@@]21O3 (stereo not given in full) | 20% |
| C=C1C[C@@]23O[C@]2(c2ccccc21)C1CC(OC(=O)[C@H](O)[C@@H](NC(=O)OCC)c2ccc(Cl)cc2)C3(C)C1(C)C (stereo not given in full) | 163% |
